Read-outs that look alike come from different tables or passages of the source.
Key:
Format in all cases: binding
[1] = molecular target: T1, HeLa cell extract proteins (Homo sapiens, UniProt P15559)
T1 construct: endogenous in cells; host or cells: HeLa cell extract

[2] = molecular target: T2, HeLa cell extract proteins (Homo sapiens, UniProt P24666)
T2 construct: endogenous in cells; host or cells: HeLa cell extract
T2 sequence (P24666 1-158): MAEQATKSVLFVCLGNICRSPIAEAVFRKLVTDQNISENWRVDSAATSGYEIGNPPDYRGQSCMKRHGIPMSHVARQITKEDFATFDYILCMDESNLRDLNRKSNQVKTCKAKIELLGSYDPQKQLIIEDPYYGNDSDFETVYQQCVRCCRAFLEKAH

[3] = molecular target: T3, HeLa cell extract proteins (Homo sapiens, UniProt P26447)
T3 construct: endogenous in cells; host or cells: HeLa cell extract

[4] = molecular target: T4, HeLa cell extract proteins (Homo sapiens, UniProt P32929)
T4 construct: endogenous in cells; host or cells: HeLa cell extract

[5] = molecular target: T5, HeLa cell extract proteins (Homo sapiens, UniProt P49588)
T5 construct: endogenous in cells; host or cells: HeLa cell extract
T5 sequence (P49588 1-968): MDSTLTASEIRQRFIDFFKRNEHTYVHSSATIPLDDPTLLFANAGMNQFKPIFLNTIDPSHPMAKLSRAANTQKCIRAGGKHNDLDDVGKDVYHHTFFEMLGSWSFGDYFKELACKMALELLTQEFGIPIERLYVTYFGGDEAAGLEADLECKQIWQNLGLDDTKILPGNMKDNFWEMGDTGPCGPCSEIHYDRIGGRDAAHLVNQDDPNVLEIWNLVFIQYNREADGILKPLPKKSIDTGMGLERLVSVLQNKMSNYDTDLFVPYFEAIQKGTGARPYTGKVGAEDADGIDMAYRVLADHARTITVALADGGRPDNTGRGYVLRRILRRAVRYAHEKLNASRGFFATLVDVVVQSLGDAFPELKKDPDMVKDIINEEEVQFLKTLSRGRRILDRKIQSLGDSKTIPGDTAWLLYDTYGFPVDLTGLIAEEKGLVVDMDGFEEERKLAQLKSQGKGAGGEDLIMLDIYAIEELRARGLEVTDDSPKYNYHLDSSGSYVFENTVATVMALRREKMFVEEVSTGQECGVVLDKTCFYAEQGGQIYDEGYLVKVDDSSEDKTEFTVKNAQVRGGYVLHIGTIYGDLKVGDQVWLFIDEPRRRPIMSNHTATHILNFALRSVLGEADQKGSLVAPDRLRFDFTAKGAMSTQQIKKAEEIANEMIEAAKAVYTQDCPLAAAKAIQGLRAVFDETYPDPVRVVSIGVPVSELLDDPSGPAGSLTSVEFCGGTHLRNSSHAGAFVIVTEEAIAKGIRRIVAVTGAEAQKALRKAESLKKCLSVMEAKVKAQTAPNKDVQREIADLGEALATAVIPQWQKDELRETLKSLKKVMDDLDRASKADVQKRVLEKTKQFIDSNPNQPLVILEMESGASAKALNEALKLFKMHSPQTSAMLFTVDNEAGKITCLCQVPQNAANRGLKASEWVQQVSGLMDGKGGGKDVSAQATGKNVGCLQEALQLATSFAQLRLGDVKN

[6] = molecular target: T6, HeLa cell extract proteins (Homo sapiens, UniProt P60228)
T6 construct: endogenous in cells; host or cells: HeLa cell extract

[7] = molecular target: T7, HeLa cell extract proteins (Homo sapiens, UniProt P62979)
T7 construct: endogenous in cells; host or cells: HeLa cell extract

[8] = molecular target: T8, HeLa cell extract proteins (Homo sapiens, UniProt Q709F0)
T8 construct: endogenous in cells; host or cells: HeLa cell extract
T8 sequence (Q709F0 1-780): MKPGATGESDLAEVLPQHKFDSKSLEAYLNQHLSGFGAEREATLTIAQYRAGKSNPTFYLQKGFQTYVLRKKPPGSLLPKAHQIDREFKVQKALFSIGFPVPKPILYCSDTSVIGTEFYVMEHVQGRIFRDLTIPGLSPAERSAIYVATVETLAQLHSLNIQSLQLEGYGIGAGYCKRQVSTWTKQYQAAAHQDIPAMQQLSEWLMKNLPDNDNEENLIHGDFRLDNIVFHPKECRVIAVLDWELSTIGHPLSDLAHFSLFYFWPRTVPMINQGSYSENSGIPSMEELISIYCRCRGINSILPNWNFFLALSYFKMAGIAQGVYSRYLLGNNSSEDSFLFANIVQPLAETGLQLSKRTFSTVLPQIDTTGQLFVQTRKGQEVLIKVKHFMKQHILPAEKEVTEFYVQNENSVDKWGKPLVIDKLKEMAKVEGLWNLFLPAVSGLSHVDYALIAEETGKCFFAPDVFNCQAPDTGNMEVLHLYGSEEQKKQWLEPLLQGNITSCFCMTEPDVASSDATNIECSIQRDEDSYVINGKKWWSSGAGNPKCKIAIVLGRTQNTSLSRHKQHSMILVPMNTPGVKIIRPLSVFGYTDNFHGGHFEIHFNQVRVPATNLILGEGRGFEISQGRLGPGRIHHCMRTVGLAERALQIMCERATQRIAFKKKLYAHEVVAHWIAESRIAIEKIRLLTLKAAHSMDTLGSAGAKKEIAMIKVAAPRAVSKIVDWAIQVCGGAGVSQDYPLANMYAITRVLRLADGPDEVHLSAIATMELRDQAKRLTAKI

[9] = molecular target: T9, HeLa cell extract proteins (Homo sapiens, UniProt Q99613)
T9 construct: endogenous in cells; host or cells: HeLa cell extract
T9 sequence (Q99613 whole entry): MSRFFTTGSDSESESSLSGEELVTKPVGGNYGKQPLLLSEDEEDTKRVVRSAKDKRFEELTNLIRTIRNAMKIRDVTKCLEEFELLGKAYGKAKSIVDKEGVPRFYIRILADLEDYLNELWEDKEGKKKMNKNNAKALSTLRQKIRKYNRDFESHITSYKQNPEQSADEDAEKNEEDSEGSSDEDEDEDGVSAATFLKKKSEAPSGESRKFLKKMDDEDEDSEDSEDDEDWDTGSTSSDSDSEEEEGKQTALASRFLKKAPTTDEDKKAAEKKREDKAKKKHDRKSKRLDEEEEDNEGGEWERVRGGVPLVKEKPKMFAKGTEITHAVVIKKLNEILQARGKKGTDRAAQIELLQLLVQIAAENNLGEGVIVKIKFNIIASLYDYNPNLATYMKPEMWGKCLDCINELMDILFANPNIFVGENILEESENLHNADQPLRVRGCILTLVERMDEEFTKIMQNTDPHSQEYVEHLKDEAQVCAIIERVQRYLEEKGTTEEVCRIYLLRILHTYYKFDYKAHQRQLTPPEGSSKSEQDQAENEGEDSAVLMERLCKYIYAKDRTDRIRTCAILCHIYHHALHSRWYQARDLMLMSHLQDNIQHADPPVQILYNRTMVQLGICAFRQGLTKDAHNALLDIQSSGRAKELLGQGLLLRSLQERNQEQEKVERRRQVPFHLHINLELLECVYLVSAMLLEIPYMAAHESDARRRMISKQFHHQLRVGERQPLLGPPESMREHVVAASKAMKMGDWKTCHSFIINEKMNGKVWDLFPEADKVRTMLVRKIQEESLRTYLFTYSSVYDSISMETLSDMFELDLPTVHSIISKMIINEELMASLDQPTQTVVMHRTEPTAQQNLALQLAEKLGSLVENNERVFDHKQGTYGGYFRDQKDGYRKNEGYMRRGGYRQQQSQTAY

T1 sequence (P15559 whole entry): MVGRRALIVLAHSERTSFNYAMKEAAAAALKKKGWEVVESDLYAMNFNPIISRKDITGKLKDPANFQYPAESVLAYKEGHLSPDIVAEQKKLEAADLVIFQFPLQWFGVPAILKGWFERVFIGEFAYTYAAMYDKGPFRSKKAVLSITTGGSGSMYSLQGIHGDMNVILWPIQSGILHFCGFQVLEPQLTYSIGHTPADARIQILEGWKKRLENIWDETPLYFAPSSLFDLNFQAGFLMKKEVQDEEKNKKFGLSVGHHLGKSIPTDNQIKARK
T4 sequence (P32929 whole entry): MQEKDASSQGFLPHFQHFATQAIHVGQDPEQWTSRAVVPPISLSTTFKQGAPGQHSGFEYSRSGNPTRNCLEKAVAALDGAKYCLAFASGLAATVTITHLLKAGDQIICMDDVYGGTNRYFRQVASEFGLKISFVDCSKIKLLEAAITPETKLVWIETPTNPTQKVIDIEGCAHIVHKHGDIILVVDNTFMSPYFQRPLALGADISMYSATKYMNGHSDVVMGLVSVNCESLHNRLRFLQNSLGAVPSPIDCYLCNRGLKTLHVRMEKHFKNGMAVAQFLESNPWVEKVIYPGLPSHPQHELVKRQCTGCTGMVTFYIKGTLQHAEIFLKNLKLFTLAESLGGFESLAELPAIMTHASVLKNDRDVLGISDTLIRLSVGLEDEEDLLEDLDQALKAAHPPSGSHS
T3 sequence (P26447 whole entry): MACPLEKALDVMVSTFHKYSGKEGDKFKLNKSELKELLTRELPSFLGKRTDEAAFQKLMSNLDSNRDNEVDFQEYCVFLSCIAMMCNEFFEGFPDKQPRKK
T6 sequence (P60228 whole entry): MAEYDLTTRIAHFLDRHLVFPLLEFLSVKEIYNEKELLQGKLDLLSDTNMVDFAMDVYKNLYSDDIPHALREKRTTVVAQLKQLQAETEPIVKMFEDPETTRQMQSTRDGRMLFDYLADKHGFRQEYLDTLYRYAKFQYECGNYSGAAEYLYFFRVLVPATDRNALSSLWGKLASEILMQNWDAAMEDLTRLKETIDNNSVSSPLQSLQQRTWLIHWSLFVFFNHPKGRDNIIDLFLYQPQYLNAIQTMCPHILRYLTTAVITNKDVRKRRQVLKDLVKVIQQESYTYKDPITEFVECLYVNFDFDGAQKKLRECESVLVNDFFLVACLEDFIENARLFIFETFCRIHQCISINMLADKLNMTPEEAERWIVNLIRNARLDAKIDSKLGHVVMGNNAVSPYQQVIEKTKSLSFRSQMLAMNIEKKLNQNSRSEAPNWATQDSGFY

SMILES | fold changes relative to vehicle control ([1]; protein NQO1, HeLa) | fold changes relative to vehicle control ([2]; protein ACP1, HeLa) | fold changes relative to vehicle control ([3]; protein S100A4, HeLa) | fold changes relative to vehicle control ([4]; protein CTH, HeLa) | fold changes relative to vehicle control ([5]; HeLa, protein AARS) | fold changes relative to vehicle control ([6]; HeLa, protein EIF3E) | fold changes relative to vehicle control [7] | fold changes relative to vehicle control ([8]; HeLa, protein ACAD11) | fold changes relative to vehicle control ([9]; protein EIF3C, HeLa) | fold changes relative to vehicle control ([1]; HeLa, protein NQO1) | fold changes relative to vehicle control ([2]; HeLa, protein ACP1) | fold changes relative to vehicle control ([5]; protein AARS, HeLa) | fold changes relative to vehicle control ([6]; protein EIF3E, HeLa) | fold changes relative to vehicle control ([7]; protein RPS27A, HeLa) | fold changes relative to vehicle control ([8]; captured protein ACAD11, HeLa) | further results
Nc1nc2c(c(=O)[nH]1)N(C=O)C(CNc1ccc(C(=O)N[C@@H](CCC(=O)O)C(=O)O)cc1)CN2 (stereo partly drawn) [LEU, leucovorin] | 1.12 | 0.72 | 0.95 | 0.82 | 1.02 | 1.15 | 1.29 | 1.12 | 1.02 | – | – | – | – | – | – | –
Nc1nc2[nH]cc(CCc3ccc(C(=O)N[C@@H](CCC(=O)O)C(=O)O)cc3)c2c(=O)[nH]1 [PTX, pemetrexed] | – | – | – | – | – | – | 1.29 | – | – | – | – | – | – | – | – | fold changes relative to vehicle control [1]: 0.92; fold changes relative to vehicle control [2]: 0.84; fold changes relative to vehicle control [3]: 0.99; fold changes relative to vehicle control [4]: 0.85; fold changes relative to vehicle control [5]: 1.1; fold changes relative to vehicle control [6]: 1.04; fold changes relative to vehicle control [8]: 0.98; fold changes relative to vehicle control [9]: 0.94
CCCCCCOc1ccc(Cc2cnc(N)nc2N)cc1 [compound 1] | – | – | 0.83 | 0.86 | – | – | – | – | 1.1 | 1.12 | 0.77 | 1.15 | 1.18 | 1.24 | 1.02 | –
CCCCCCOc1cccc(Cc2cnc(N)nc2N)c1 [compound 2] | – | – | 1.43 | 1.43 | – | – | – | – | 1.19 | 1.22 | 0.98 | 1.96 | 1.21 | 1.5 | 0.77 | –
Nc1nc2cccc(-c3ccccc3)c2n1Cc1ccc(Cl)c(Cl)c1 [compound 3] | – | – | 1.15 | 0.91 | – | – | – | – | 1.08 | 1.13 | 0.71 | 0.95 | 0.99 | 1.01 | 1.07 | –
NCCOCCOCC(=O)Nc1nc2ncc(CNc3ccc(C(=O)NC(CCC(=O)O)C(=O)O)cc3)nc2c(=O)[nH]1 (stereo not drawn) [compound 6] | 0.6 | 1.04 | 1.18 | 0.95 | 1.28 | 1.11 | – | 0.95 | 1.02 | – | – | – | – | – | – | fold changes relative to vehicle control ([7]; HeLa, protein RPS27A (UBIQUITIN AND RIBOSOMAL PROTEIN S27A PRECURSOR)): 1.51
NCCCNc1ccc(C(=O)NC(CCC(=O)O)C(=O)O)cc1 (stereo not drawn) [compound 7] | 2.36 | 0.71 | 1.03 | 0.87 | 1 | 1.01 | 1.22 | 1.05 | 0.88 | – | – | – | – | – | – | –
